# According to ChEMBL document CHEMBL1697723, “A predictive ligand-based Bayesian model for human drug-induced liver injury” (Drug Metab Dispos, 2010):
# Tested on: Hepatotoxicity
# Assay: Human drug-induced liver injury (DILI) modelling dataset from Ekins et al
# Details: not given
row,Molecule,Hepatotoxicity
1,CC(C)(C)NC[C@H](O)COc1nsnc1N1CCOCC1.O=C(O)/C=C\C(=O)O [TIMOLOL MALEATE],DILI positive (training set)
2,NC[C@H]1O[C@H](O[C@H]2[C@H](O)[C@@H](O[C@H]3O[C@H](CO)[C@@H](O)[C@H](N)[C@H]3O)[C@H](N)C[C@@H]2N)[C@H](N)C[C@@H]1O [TOBRAMYCIN],DILI positive (test set)
3,Cc1ccc(S(=O)(=O)NC(=O)NN2CCCCCC2)cc1 [TOLAZAMIDE],DILI positive (test set)
4,Cc1ccc(C(=O)c2ccc(CC(=O)O)n2C)cc1 [TOLMETIN],DILI positive (training set)
5,COc1ccc2c(C(=S)N(C)CC(=O)O)cccc2c1C(F)(F)F [TOLRESTAT],DILI positive (test set)
6,CC1(C)O[C@@H]2[C@@H](CO[C@@]3(COS(N)(=O)=O)OC(C)(C)O[C@@H]23)O1 [TOPIRAMATE],DILI negative (test set)
7,Cl.O=c1n(CCCN2CCN(c3cccc(Cl)c3)CC2)nc2ccccn12 [TRAZODONE HYDROCHLORIDE],DILI positive (training set)
8,CC1=C(/C=C/C(C)=C/C=C/C(C)=C/C(=O)O)C(C)(C)CCC1 [TRETINOIN],DILI positive (training set)
9,ClC=C(Cl)Cl [TRICHLOROETHYLENE],DILI positive (test set)
10,CN1CCN(CCCN2c3ccccc3Sc3ccc(C(F)(F)F)cc32)CC1 [TRIFLUOPERAZINE],DILI positive (training set)
11,CN1C(=O)OC(C)(C)C1=O [TRIMETHADIONE],DILI positive (training set)
12,COc1cc(C(=O)NCc2ccc(OCCN(C)C)cc2)cc(OC)c1OC.Cl [TRIMETHOBENZAMIDE HYDROCHLORIDE],DILI positive (test set)
13,CN(C)CCN(Cc1ccccc1)c1ccccn1.Cl [TRIPELENNAMINE HYDROCHLORIDE],DILI positive (test set)
14,Cc1c(C)c2c(c(C)c1O)CCC(C)(COc1ccc(CC3SC(=O)NC3=O)cc1)O2 (configuration not stated) [TROGLITAZONE],DILI positive (test set)
15,CO[C@H]1C[C@H](O[C@H]2[C@H](C)[C@@H](O[C@@H]3O[C@H](C)C[C@H](N(C)C)[C@H]3OC(C)=O)[C@@H](C)C[C@@]3(CO3)C(=O)[C@H](C)[C@@H](OC(C)=O)[C@@H](C)[C@@H](C)OC(=O)[C@@H]2C)O[C@@H](C)[C@@H]1OC(C)=O [TROLEANDOMYCIN],DILI positive (test set)
16,N[C@@H]1[C@H]2CN(c3nc4c(cc3F)c(=O)c(C(=O)O)cn4-c3ccc(F)cc3F)C[C@@H]12 [TROVAFLOXACIN],DILI positive (training set)
17,C[C@H](CCC(=O)O)[C@H]1CC[C@H]2[C@@H]3[C@@H](O)C[C@@H]4C[C@H](O)CC[C@]4(C)[C@H]3CC[C@]12C [URSODIOL],DILI negative (training set)
18,CCCCC(=O)O [VALERIC ACID],DILI negative (test set)
19,CN[C@H](CC(C)C)C(=O)N[C@H]1C(=O)N[C@@H](CC(N)=O)C(=O)N[C@H]2C(=O)N[C@H]3C(=O)N[C@H](C(=O)N[C@H](C(=O)O)c4cc(O)cc(O)c4-c4cc3ccc4O)[C@H](O)c3ccc(c(Cl)c3)Oc3cc2cc(c3O[C@@H]2O[C@H](CO)[C@@H](O)[C@H](O)[C@H]2O[C@H]2C[C@](C)(N)[C@H](O)[C@H](C)O2)Oc2ccc(cc2Cl)[C@H]1O [VANCOMYCIN],DILI positive (training set)
20,Nc1ncnc2c1ncn2[C@@H]1O[C@H](CO)[C@@H](O)[C@@H]1O [VIDARABINE],DILI negative (training set)
21,CC[C@]1(O)C[C@@H]2CN(CCc3c([nH]c4ccccc34)[C@@](C(=O)OC)(c3cc4c(cc3OC)N(C)[C@H]3[C@@](O)(C(=O)OC)[C@H](OC(C)=O)[C@]5(CC)C=CCN6CC[C@]43[C@@H]65)C2)C1.O=S(=O)(O)O [VINBLASTINE SULFATE],DILI negative (test set)

row,Molecule,Hepatotoxicity
1,CC[C@]1(O)C[C@H]2CN(CCc3c([nH]c4ccccc34)[C@@](C(=O)OC)(c3cc4c(cc3OC)N(C=O)[C@H]3[C@@](O)(C(=O)OC)[C@H](OC(C)=O)[C@]5(CC)C=CCN6CC[C@]43[C@@H]65)C2)C1.O=S(=O)(O)O [VINCRISTINE SULFATE],DILI positive (test set)
2,CCCCCCCCCCCCCCCC(=O)OC/C=C(C)/C=C/C=C(C)/C=C/C1=C(C)CCCC1(C)C [VITAMIN A PALMITATE],DILI positive (test set)
3,CC(=O)CC(c1ccccc1)c1c(O)c2ccccc2oc1=O (configuration not stated) [WARFARIN],DILI negative (training set)
4,CCOC(=O)CN[C@@H](C(=O)N1CC[C@H]1C(=O)NCc1ccc(/C(N)=N\O)cc1)C1CCCCC1 [XIMELAGATRAN],DILI positive (test set)
5,COc1cc(C(=O)NS(=O)(=O)c2ccccc2C)ccc1Cc1cn(C)c2ccc(NC(=O)OC3CCCC3)cc12 [ZAFIRLUKAST],DILI positive (training set)
6,Cc1cn([C@H]2C[C@H](N=[N+]=[N-])[C@@H](CO)O2)c(=O)[nH]c1=O [ZIDOVUDINE],DILI positive (training set)
7,CC(c1cc2ccccc2s1)N(O)C(N)=O (configuration not stated) [ZILEUTON],DILI positive (training set)
8,Cc1ccc(-c2nc3ccc(C)cn3c2CC(=O)N(C)C)cc1 [ZOLPIDEM],DILI negative (test set)
9,Cc1cc(CC(=O)O)n(C)c1C(=O)c1ccc(Cl)cc1 [ZOMEPIRAC],DILI negative (training set)
10,AURANOFIN,DILI positive (test set)
11,AUROTHIOGLUCOSE,DILI positive (test set)
12,AUROTHIOLAMATE,DILI positive (test set)
13,BISMUTH SUBSALICYLATE,DILI negative (test set)
14,CADMIUM DICHLORIDE,DILI positive (training set)
15,CARBOPLATIN,DILI positive (test set)
16,CISPLATIN,DILI positive (test set)
17,CYANOCOBALAMIN,DILI negative (training set)
18,GALLIUM NITRATE HYDRATE,DILI negative (training set)
19,"LACTOSE, ANHYDROUS",DILI negative (test set)
20,POTASSIUM DICHROMATE,DILI positive (training set)

# Same assay, conditions: Liver
row,Molecule,Hepatotoxicity
1,Cc1ccc(C(=O)c2cc(O)c(O)c([N+](=O)[O-])c2)cc1 [TOLCAPONE],DILI positive (test set)
2,Cl.N[C@@H]1C[C@H]1c1ccccc1 [TRANYLCYPROMINE HYDROCHLORIDE],DILI negative (training set)
3,COc1cc(Cc2cnc(N)nc2N)cc(OC)c1OC [TRIMETHOPRIM],DILI positive (test set)
4,NC(CO)(CO)CO [TROMETHAMINE],DILI negative (test set)
5,Oc1ncc(N(CCCl)CCCl)c(O)n1 [URACIL MUSTARD],DILI positive (test set)
6,Nc1ccn([C@H]2CC[C@@H](CO)O2)c(=O)n1 [ZALCITABINE],DILI negative (training set)
